Broadly, the IC50 is the point on the concentration scale where inhibition reaches its midpoint. High values mean a need for much substance, low ones inhibition by little substance.

We go through 28 molecules from US9944666B2, “Compounds that are S1P modulating agents and/or ATX modulating agents” (BIOGEN MA INC., priority 2012, dated 2018).

Some results are limits rather than exact numbers.

The target in the assay is T1, Human ATX protein (Homo sapiens, UniProt Q13822).
T1 construct: made in house
The assay is described as follows: ATX biochemical FRET assay with FS-3 substrate. The conditions noted are these: FS-3 2 μM, ATX 1.0 μg/mL, room temperature 2 hours, fluorescence 485/538 nm. In short, it runs like this:
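Purified human ATX (1.0 μg/mL final) preincubated with compound 30 min at room temperature in Tris pH 7.4 buffer with NaCl, KCl, CaCl2, MgCl2 and 1 mg/mL fatty acid-free BSA. FS-3 added to 2 μM final; 2 h at room temperature in the dark, fluorescence at ex 485/em 538 nm.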
In the case of `CC[C@H]1CC[C@@H](Oc2ccc3cc(C(=O)N4C5CCC4CC(C(=O)O)C5)ccc3c2C(F)(F)F)CC1` (stereo partly drawn) [Example 222, 8-(6-((cis-4-ethylcyclohexyl)oxy)-5-(trifluoromethyl)-2-naphthoyl)-8-azabicyclo[3.2.1]octane-3-carboxylic acid], the IC50 was no more than 100 nM.
Then `CC[C@H]1CC[C@@H](Oc2ccc3cc(C(=O)N4C5CCC4CC(C(=O)O)C5)ccc3c2C#N)CC1` (stereo partly drawn) [Example 223, 8-(5-cyano-6-((cis-4-ethylcyclohexyl)oxy)-2-naphthoyl)-8-azabicyclo[3.2.1]octane-3-carboxylic acid], with no more than 100 nM; and `CC[C@H]1CC[C@@H](Oc2ccc3cc(C(=O)N4C5CCCC4CC(C(=O)O)C5)ccc3c2C(F)(F)F)CC1` (stereo partly drawn) [Example 224, 9-(6-((cis-4-ethylcyclohexyl)oxy)-5-(trifluoromethyl)-2-naphthoyl)-9-azabicyclo[3.3.1]nonane-3-carboxylic acid], with no more than 100 nM; and `CC(c1ccc2c(C#N)c(O[C@H]3CC[C@@H](C)CC3)ccc2c1)N1C2CCCC1CC(C(=O)O)C2` (stereo partly drawn) [Example 225, 9-(1-(5-cyano-6-((cis-4-methylcyclohexyl)oxy)naphthalen-2-yl)ethyl)-9-azabicyclo[3.3.1]nonane-3-carboxylic acid], with no more than 100 nM.
Under `CCC(c1ccc2c(C#N)c(O[C@H]3CC[C@@H](C)CC3)ccc2c1)N1C2CCC1CC(C(=O)O)C2` (stereo partly drawn) [Example 226, 8-(1-(5-cyano-6-((cis-4-methylcyclohexyl)oxy)naphthalen-2-yl)propyl)-8-azabicyclo[3.2.1]octane-3-carboxylic acid] stands no more than 100 nM; under `CC[C@H]1CC[C@@H](Oc2ccc3cc(C(=O)N4C5CCCC4CC(C(=O)O)C5)ccc3c2Cl)CC1` (stereo partly drawn) [Example 227, 9-(5-chloro-6-((cis-4-ethylcyclohexyl)oxy)-2-naphthoyl)-9-azabicyclo[3.3.]nonane-3-carboxylic acid], no more than 100 nM.
Molecule `CC(c1ccc2c(C#N)c(O[C@H]3CC[C@@H](C(F)(F)F)CC3)ccc2c1)N1C2CCCC1CC(C(=O)O)C2` (stereo partly shown) [Example 228, 9-(1-(5-cyano-6-(((1s,4s)-4-(trifluoromethyl)cyclohexyl)oxy)naphthalen-2-yl)ethyl)-9-azabicyclo[3.3.1]nonane-3-carboxylic acid] returned an IC50 of no more than 100 nM.
Under `N#Cc1c(O[C@H]2CC[C@@H](C(F)(F)F)CC2)ccc2cc(CN3C4CCCC3CC(C(=O)O)C4)ccc12` (stereo partly drawn) [Example 229, 9-((5-cyano-6-((cis-4-(trifluoromethyl)cyclohexyl)oxy)naphthalen-2-yl)methyl)-9-azabicyclo[3.3.1]nonane-3-carboxylic acid] stands no more than 100 nM.
Under `O=C(O)C1CC2CCCC(C1)N2Cc1ccc2c(C(F)(F)F)c(N[C@H]3CC[C@@H](C(F)(F)F)CC3)ccc2c1` (stereo partly drawn) [Example 230, 9-((5-(trifluoromethyl)-6-((cis-4-(trifluoromethyl)cyclohexyl)amino)naphthalen-2-yl)methyl)-9-azabicyclo[3.3.1]nonane-3-carboxylic acid] stands no more than 100 nM; under `COC(=O)C1CC2CCC(C1)N2C(=O)c1ccc2c(C(F)(F)F)c(N[C@H]3CC[C@@H](C(F)(F)F)CC3)ccc2c1` (stereo partly drawn) [Example 231, methyl 8-(5-(trifluoromethyl)-6-((cis-4-(trifluoromethyl)cyclohexyl)amino)-2-naphthoyl)-8-azabicyclo[3.2.1]octane-3-carboxylate], no more than 250 nM.
Then `CC(c1ccc2c(Cl)c(O[C@H]3CC[C@@H](C(F)(F)F)CC3)ccc2c1)N1C2CCC1CC(C(=O)O)C2` (stereo partly drawn) [Example 234, 8-(1-(5-chloro-6-((cis-4-(trifluoromethyl)cyclohexyl)oxy)naphthalen-2-yl)ethyl)-8-azabicyclo[3.2.1]octane-3-carboxylic acid], with no more than 100 nM; and `CC(c1ccc2c(Cl)c(O[C@H]3CC[C@@H](C(F)(F)F)CC3)ccc2c1)N1C2CCCC1CC(C(=O)O)C2` (stereo partly drawn) [Example 235, 9-(1-(5-chloro-6-((cis-4-(trifluoromethyl)cyclohexyl)oxy)naphthalen-2-yl)ethyl)-9-azabicyclo[3.3.1]nonane-3-carboxylic acid], with no more than 100 nM.
The molecule `CCC(c1ccc2c(Cl)c(O[C@H]3CC[C@@H](CC)CC3)ccc2c1)N1C2CCC1CC(C(=O)O)C2` (stereo partly drawn) [Example 236, 8-(1-(5-chloro-6-((cis-4-ethylcyclohexyl)oxy)naphthalen-2-yl)propyl)-8-azabicyclo[3.2.1]octane-3-carboxylic acid] had a 50% inhibitory concentration (IC50) of no more than 100 nM.
Then `CCC(c1ccc2c(Cl)c(O[C@H]3CC[C@@H](CC)CC3)ccc2c1)N1C2CCCC1CC(C(=O)O)C2` (stereo partly drawn) [Example 237, 9-(1-(5-chloro-6-((cis-4-ethylcyclohexyl)oxy)naphthalen-2-yl)propyl)-9-azabicyclo[3.3.1]nonane-3-carboxylic acid], with no more than 250 nM; and `COC(=O)C1CC2CCCC(C1)N2C(=O)c1ccc2c(C(F)(F)F)c(N[C@H]3CC[C@@H](C(F)(F)F)CC3)ccc2c1` (stereo partly drawn) [Example 244, methyl 9-(5-(trifluoromethyl)-6-((cis-4-(trifluoromethyl)cyclohexyl)amino)-2-naphthoyl)-9-azabicyclo[3.3.1]nonane-3-carboxylate], with no more than 100 nM.
Then `O=C(O)C1CC2CCCC(C1)N2C(=O)c1ccc2c(C(F)(F)F)c(N[C@H]3CC[C@@H](C(F)(F)F)CC3)ccc2c1` (stereo partly drawn) [Example 245, 9-(5-(trifluoromethyl)-6-((cis-4-(trifluoromethyl)cyclohexyl)amino)-2-naphthoyl)-9-azabicyclo[3.3.1]nonane-3-carboxylic acid], with no more than 100 nM.
`CC(C)(C)[C@H]1CC[C@H](Nc2ncc3cc(C(=O)N4C5CCC4CC(C(=O)O)C5)ccc3n2)CC1` (stereo partly drawn) [Example 262, 8-(2-((trans-4-(tert-butyl)cyclohexyl)amino)quinazoline-6-carbonyl)-8-azabicyclo[3.2.1]octane-3-carboxylic acid] displayed an IC50 of no more than 100 nM.
In turn, `C[C@H]1CC[C@H](Nc2cc3ccc(C(=O)N4C5CCCC4CC(C(=O)O)C5)cc3cn2)CC1` (stereo partly drawn) [Example 263, 9-(3-((trans-4-methylcyclohexyl)amino)isoquinoline-7-carbonyl)-9-azabicyclo[3.3.1]nonane-3-carboxylic acid] came in with an IC50 of no more than 500 nM.
Under `C[C@H]1CC[C@H](Nc2cc3ccc(C(=O)N4C5CCC4CC(C(=O)O)C5)cc3cn2)CC1` (stereo partly drawn) [Example 264, 8-(3-((trans-4-methylcyclohexyl)amino)isoquinoline-7-carbonyl)-8-azabicyclo[3.2.1]octane-3-carboxylic acid] stands no more than 500 nM.
Then `C[C@H]1CC[C@@H](Nc2ncc3cc(CN4C5CCCC4CC(C(=O)O)C5)ccc3c2Cl)CC1` (stereo partly drawn) [Example 271, 9-((4-chloro-3-((cis-4-methylcyclohexyl)amino)isoquinolin-7-yl)methyl)-9-azabicyclo[3.3.1]nonane-3-carboxylic acid], with no more than 500 nM.
With `CC(C)(C)[C@H]1CC[C@@H](Nc2ncc3cc(C(=O)N4C5CCC4CC(C(=O)O)C5)ccc3c2Cl)CC1` (stereo partly drawn) [Example 272, 8-(3-((cis-4-(tert-butyl)cyclohexyl)amino)-4-chloroisoquinoline-7-carbonyl)-8-azabicyclo[3.2.1]octane-3-carboxylic acid], the IC50 was no more than 250 nM.
Then `O=C(O)C1CC2CCCC(C1)N2Cc1cc2ccc(O[C@H]3CC[C@@H](C(F)(F)F)CC3)c(Br)c2cn1` (stereo partly drawn) [Example 274, 9-((8-bromo-7-((cis-4-(trifluoromethyl)cyclohexyl)oxy)isoquinolin-3-yl)methyl)-9-azabicyclo[3.3.1]nonane-3-carboxylic acid], with no more than 250 nM.
Under `C[C@H]1CC[C@@H](Oc2ccc3cc(CN4C5CCCC4CC(C(=O)O)C5)ncc3c2Br)CC1` (stereo partly drawn) [Example 279, 9-((8-bromo-7-((cis-4-methylcyclohexyl)oxy)isoquinolin-3-yl)methyl)-9-azabicyclo[3.3.1]nonane-3-carboxylic acid] stands no more than 500 nM; under `CC[C@H]1CC[C@@H](Oc2ccc3nc(NC4C5CCC4CC(C(=O)O)C5)ccc3c2C(F)(F)F)CC1` (stereo partly drawn) [Example 280, 8-((6-((cis-4-ethylcyclohexyl)oxy)-5-(trifluoromethyl)quinolin-2-yl)amino)bicyclo[3.2.1]octane-3-carboxylic acid], no more than 100 nM.
On to `CC[C@H]1CC[C@@H](Oc2ccc3nc(NC4C5CCCC4CC(C(=O)O)C5)ccc3c2Cl)CC1` (stereo partly drawn) [Example 281, 9-((5-chloro-6-((cis-4-ethylcyclohexyl)oxy)quinolin-2-yl)amino)bicyclo[3.3.1]nonane-3-carboxylic acid], for which the IC50 is no more than 100 nM.
As for `O=C(O)C1CC2CC(C(=O)O)CC(C1)N2Cc1ccc2c(C(F)(F)F)c(O[C@H]3CC[C@@H](C(F)(F)F)CC3)ccc2c1` (stereo partly drawn) [Example 282, (1R,3S,5S)-9-((5-(trifluoromethyl)-6-((cis-4-(trifluoromethyl)cyclohexyl)oxy)naphthalen-2-yl)methyl)-9-azabicyclo[3.3.1]nonane-3,7-dicarboxylic acid], the IC50 was no more than 100 nM.
Then `O=C(O)C12CC3CC(C1)N(Cc1ccc4c(C(F)(F)F)c(O[C@H]5CC[C@@H](C(F)(F)F)CC5)ccc4c1)C(C3)C2` [Example 283, 9-(1R,3S,5S,7S)-2-((5-(trifluoromethyl)-6-((cis-4-(trifluoromethyl)cyclohexyl)oxy)naphthalen-2-yl)methyl)-2-azaadamantane-5-carboxylic acid], with no more than 100 nM; and `NC1CC2CC(C(=O)O)CC(C1)N2Cc1ccc2c(C(F)(F)F)c(O[C@H]3CC[C@@H](C(F)(F)F)CC3)ccc2c1` (stereo partly drawn) [Example 284, 9-(1R,3R,5S)-7-amino-9-((5-(trifluoromethyl)-6-((cis-4-(trifluoromethyl)cyclohexyl)oxy)naphthalen-2-yl)methyl)-9-azabicyclo[3.3.1]nonane-3-carboxylic acid], with no more than 250 nM.
